Assay results as given in patent US20250170117A1, “MODULATORS OF ACKR3 AND USES THEREOF” (InterAx Biotech AG, priority 2022, published 2025).
pKi: −log10 of the molar value.

Target: T1, NanoLuc-hACKR3 (Homo sapiens, UniProt P25106)
T1 construct: expressed in transfected cells; host or cells: HEK293T (transient, PEI; membrane preparation)
Experiment: NanoBRET binding study (displacement of fluorescently labelled CXCL12)
Settings: displacement of 0.3 nM CXCL12-AF647; membranes of HEK293T cells expressing NanoLuc-ACKR3; 1 hour incubation; read-out: Affinity
Experimental: Membranes of HEK293T cells that transiently express the NanoLuc-hACKR3 were produced. 2 million HEK293T cells were seeded per […] dish and were transfected the next day using a DNA/PEI-mix containing 0.25 μg plasmid DNA encoding for the ACKR3, 4.75 μg pcDEF3 plasmid DNA and 30 μg linear PEI. Two days after transfection, cells were collected in PBS and pelleted by centrifugation. Cell pellets were resuspended in ice-cold membrane buffer (15 mM Tris, 0.3 mM EDTA, 2 mM MgCl2, pH 7.4 at 4° C.) and were dounce-homogenized on ice by plunging the pestle […] with 1500 rpm. Cell homogenates were subsequently subjected to two freeze-thaw cycles using liquid nitrogen. Next, the cell homogenates were centrifuged at 40,000 g and pellets were resuspended in Tris-sucrose buffer (20 mM Tris, 250 mM Sucrose, pH 7.4 at 4° C.). Finally, the membrane samples were homogenized using a 23-gauge needle, snap-frozen with liquid nitrogen and stored until further experimentation at −80° C.
Binding reactions were measured in triplicate on white low-volume 384-well plates and started by combining 0.3 nM fluorescently labelled CXCL12 (CXCL12 labelled with a AF647® dye in a molar ratio of dye:peptide of 1:1, purchased from ALMAC, h-SDF-1α (AF647®), cat. No. CAF-11, Sequence:
[…](Ale xa647®)ALN), increasing concentrations of test compound (10^−5 M-10^−11 M) with 35 ng membranes (protein content) per well of HEK293T cells expressing the NanoLuc-ACKR3. All dilutions were prepared in HBSS supplemented with 0.2% BSA. After assembling the binding reaction, the plate was flash-centrifuged at 500 g. Binding reactions were then incubated for 1 hour after which NanoGlo substrate was added (310 times diluted from stock concentration) to a final volume of 13.5 μL. The reaction plate was again pulse-centrifuged to 500 g and the total light intensity was measured for 460 nm wavelength with 80 nm bandwidth and separately for wavelengths ≥610 nm using the PHERAstar-FSX (BMG Labtech, Ortenberg, Germany) with a dual emission filter. The ratio of light intensities (>610 nm over 460 nm) is a measure for the relative binding of CXCL12-A647 to the NanoLuc-ACKR3. The pharmacological data are presented in Appendix 1.

T1 sequence (P25106 whole entry): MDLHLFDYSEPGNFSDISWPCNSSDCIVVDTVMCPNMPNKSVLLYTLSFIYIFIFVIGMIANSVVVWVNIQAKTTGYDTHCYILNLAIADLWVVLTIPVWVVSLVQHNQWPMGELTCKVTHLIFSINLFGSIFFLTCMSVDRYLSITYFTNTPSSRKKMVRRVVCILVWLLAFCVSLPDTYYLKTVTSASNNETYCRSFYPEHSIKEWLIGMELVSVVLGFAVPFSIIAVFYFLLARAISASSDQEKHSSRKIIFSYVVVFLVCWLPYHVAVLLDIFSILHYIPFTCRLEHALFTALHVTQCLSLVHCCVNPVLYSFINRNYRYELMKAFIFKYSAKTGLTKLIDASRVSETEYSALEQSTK

Row | pKi | Structure (SMILES)
1 | < 5.00 | O=C(NCC1CCN(C2CCCCC2)CC1)c1cc(-c2ccccc2)on1 [Molecule 2]
2 | < 5.00 | O=C(NCC1CCN(C(=O)C2CC2)CC1)c1cc(-c2ccc(F)cc2F)on1 [Molecule 7]
3 | < 5.00 | O=C(NCC1CCN(C(=O)C2CCC2)CC1)c1cc(-c2ccc(F)cc2F)on1 [Molecule 8]
4 | < 5.00 | O=C(NCC1CCN(C(=O)C2CCCCC2)CC1)c1cc(-c2ccc(F)cc2F)on1 [Molecule 9]
5 | 5.00 to 6.00 | O=C(NCC1CCN(C(=O)c2cnc3ccccc3n2)CC1)c1cc(-c2ccc(F)cc2F)on1 [Molecule 12]
6 | < 5.00 | O=C(NCC1CCN(S(=O)(=O)C2CC2)CC1)c1cc(-c2ccc(F)cc2F)on1 [Molecule 14]
7 | 6.00 to 7.00 | O=C(NCC1CCN(CC2CCCC2)CC1)c1cc(-c2ccc(F)cc2F)on1 [Molecule 16]
8 | 6.00 to 7.00 | O=C(NCC1CCN(Cc2ccccc2)CC1)c1cc(-c2ccc(F)cc2F)on1 [Molecule 17]
9 | 6.00 to 7.00 | O=C(NCC1CCN(C2CCC2)CC1)c1cc(-c2ccc(F)cc2F)on1 [Molecule 18]
10 | 6.00 to 7.00 | O=C(NCC1CCN(C2CCCC2)CC1)c1cc(-c2ccc(F)cc2F)on1 [Molecule 19]
11 | 6.00 to 7.00 | O=C(NCC1CCN(C2CCCCCC2)CC1)c1cc(-c2ccc(F)cc2F)on1 [Molecule 20]
12 | 5.00 to 6.00 | O=C(NCC1CCN(CC2CCCCC2)CC1)c1cc(-c2ccc(F)cc2F)on1 [Molecule 22]
13 | 6.00 to 7.00 | O=C(NCC1CCN(CCc2ccccc2)CC1)c1cc(-c2ccc(F)cc2F)on1 [Molecule 23]
14 | ≥ 7.00 | O=C(NCC1CCN(CCCc2ccccc2)CC1)c1cc(-c2ccc(F)cc2F)on1 [Molecule 24]
15 | ≥ 7.00 | COc1ccccc1CN1CCC(CNC(=O)c2cc(-c3ccc(F)cc3F)on2)CC1 [Molecule 25]
16 | ≥ 7.00 | COc1cccc(CN2CCC(CNC(=O)c3cc(-c4ccc(F)cc4F)on3)CC2)c1 [Molecule 26]
17 | ≥ 7.00 | COc1ccc(CN2CCC(CNC(=O)c3cc(-c4ccc(F)cc4F)on3)CC2)cc1 [Molecule 27]
18 | 6.00 to 7.00 | O=C(NCC1CCN(Cc2ccccn2)CC1)c1cc(-c2ccc(F)cc2F)on1 [Molecule 28]
19 | 6.00 to 7.00 | O=C(NCC1CCN(Cc2cccnc2)CC1)c1cc(-c2ccc(F)cc2F)on1 [Molecule 29]

Row | pKi | Structure (SMILES)
20 | 5.00 to 6.00 | O=C(NCC1CCN(Cc2ccncc2)CC1)c1cc(-c2ccc(F)cc2F)on1 [Molecule 30]
21 | 5.00 to 6.00 | CN(C)C(=O)c1cccc(CN2CCC(CNC(=O)c3cc(-c4ccc(F)cc4F)on3)CC2)c1 [Molecule 31]
22 | < 5.00 | O=C(NCC1CCN(c2ccccc2)CC1)c1cc(-c2ccc(F)cc2F)on1 [Molecule 32]
23 | ≥ 7.00 | Cc1ccc(CN2CCC(CNC(=O)c3cc(-c4ccc(F)cc4F)on3)CC2)cc1 [Molecule 33]
24 | ≥ 7.00 | O=C(NCC1CCN(Cc2ccc(Cl)cc2)CC1)c1cc(-c2ccc(F)cc2F)on1 [Molecule 34]
25 | < 5.00 | N#Cc1ccc(CN2CCC(CNC(=O)c3cc(-c4ccc(F)cc4F)on3)CC2)cc1 [Molecule 35]
26 | ≥ 7.00 | COC(=O)c1ccc(CN2CCC(CNC(=O)c3cc(-c4ccc(F)cc4F)on3)CC2)cc1 [Molecule 36]
27 | ≥ 7.00 | CN(C)c1ccc(CN2CCC(CNC(=O)c3cc(-c4ccc(F)cc4F)on3)CC2)cc1 [Molecule 37]
28 | < 5.00 | O=C(NCC1CCN(Cc2ccc(OC(F)(F)F)cc2)CC1)c1cc(-c2ccc(F)cc2F)on1 [Molecule 38]
29 | ≥ 7.00 | CC(=O)Nc1ccc(CN2CCC(CNC(=O)c3cc(-c4ccc(F)cc4F)on3)CC2)cc1 [Molecule 39]
30 | 5.00 to 6.00 | O=C(O)c1ccc(CN2CCC(CNC(=O)c3cc(-c4ccc(F)cc4F)on3)CC2)cc1 [Molecule 40]
31 | 5.00 to 6.00 | CN(C)C(=O)c1ccc(CN2CCC(CNC(=O)c3cc(-c4ccc(F)cc4F)on3)CC2)cc1 [Molecule 41]
32 | ≥ 7.00 | O=C(NCC1CCN(C/C=C/c2ccccc2)CC1)c1cc(-c2ccc(F)cc2F)on1 [Molecule 42]
33 | < 5.00 | O=C(NCC1CCN(Cc2ccc([N+](=O)[O-])cc2)CC1)c1cc(-c2ccc(F)cc2F)on1 [Molecule 43]
34 | ≥ 7.00 | O=C(NCC1CCN(CCCCc2ccccc2)CC1)c1cc(-c2ccc(F)cc2F)on1 [Molecule 45]
35 | ≥ 7.00 | COc1ccc(CN2CCC(CNC(=O)c3cc(-c4ccc(F)cc4F)on3)CC2)cc1OC [Molecule 46]
36 | 6.00 to 7.00 | COc1cc(CN2CCC(CNC(=O)c3cc(-c4ccc(F)cc4F)on3)CC2)cc(OC)c1OC [Molecule 47]
37 | 5.00 to 6.00 | CS(=O)(=O)c1ccc(CN2CCC(CNC(=O)c3cc(-c4ccc(F)cc4F)on3)CC2)cc1 [Molecule 48]
38 | 6.00 to 7.00 | NS(=O)(=O)c1ccc(CN2CCC(CNC(=O)c3cc(-c4ccc(F)cc4F)on3)CC2)cc1 [Molecule 49]

Row | pKi | Structure (SMILES)
39 | ≥ 7.00 | O=C(NCC1CCN(Cc2ccc(O)cc2)CC1)c1cc(-c2ccc(F)cc2F)on1 [Molecule 50]
40 | < 5.00 | O=C(NCC1CCN(Cc2ccc(C(F)(F)F)cc2)CC1)c1cc(-c2ccc(F)cc2F)on1 [Molecule 51]
41 | 6.00 to 7.00 | O=C(NCC1CCN(Cc2ccc(F)cc2)CC1)c1cc(-c2ccc(F)cc2F)on1 [Molecule 52]
42 | 6.00 to 7.00 | O=C(NCC1CCN(Cc2ccc(Br)cc2)CC1)c1cc(-c2ccc(F)cc2F)on1 [Molecule 53]
43 | 5.00 to 6.00 | O=C(NCC1CCN(C/C=C/c2ccccc2)CC1)c1cc(-c2ccc(F)cc2F)n[nH]1 [Molecule 58]
44 | ≥ 7.00 | O=C(NCC1CCN(C/C=C/c2ccccc2)CC1)c1cn(-c2ccc(F)cc2F)nn1 [Molecule 61]
45 | 6.00 to 7.00 | O=C(NCC1CCN(C/C=C/c2ccccc2)CC1)c1cnn(-c2ccc(F)cc2F)c1 [Molecule 64]
46 | 5.00 to 6.00 | O=C(NCC1CCN(C/C=C/c2ccccc2)CC1)c1cnn(-c2ccc(F)cc2F)n1 [Molecule 68]
47 | 6.00 to 7.00 | O=C(NCC1CCN(C/C=C/c2ccccc2)CC1)c1nnn(-c2ccc(F)cc2F)n1 [Molecule 72]
48 | 5.00 to 6.00 | O=C(NCC1CCN(C/C=C/c2ccccc2)CC1)c1nc(-c2ccc(F)cc2F)c[nH]1 [Molecule 77]
49 | 5.00 to 6.00 | O=C(NCC1CCN(C/C=C/c2ccccc2)CC1)c1nc(-c2ccc(F)cc2F)cs1 [Molecule 80]
50 | 5.00 to 6.00 | O=C(NCC1CCN(C/C=C/c2ccccc2)CC1)c1csc(-c2ccc(F)cc2F)n1 [Molecule 82]
51 | ≥ 7.00 | O=C(NCC1CCN(C/C=C/c2ccccc2)CC1)c1ncc(-c2ccc(F)cc2F)s1 [Molecule 85]
52 | ≥ 7.00 | O=C(NCC1CCN(C/C=C/c2ccccc2)CC1)c1cnc(-c2ccc(F)cc2F)s1 [Molecule 87]
53 | ≥ 7.00 | O=C(NCC1CCN(C/C=C/c2ccccc2)CC1)c1nnc(-c2ccc(F)cc2F)s1 [Molecule 89]
54 | ≥ 7.00 | O=C(NCC1CCN(C/C=C/c2ccccc2)CC1)c1cc(-c2ccc(F)cc2F)no1 [Molecule 92]
55 | 6.00 to 7.00 | O=C(NCC1CCN(C/C=C/c2ccccc2)CC1)c1ncc(-c2ccc(F)cc2F)o1 [Molecule 94]
56 | ≥ 7.00 | O=C(NCC1CCN(C/C=C/c2ccccc2)CC1)c1nnc(-c2ccc(F)cc2F)o1 [Molecule 96]
57 | 6.00 to 7.00 | O=C(NCC1CCN(C/C=C/c2ccccc2)CC1)c1nc(-c2ccc(F)cc2F)no1 [Molecule 99]
